Counter-ions that a name gives are not always drawn.

For the experiment, the target named is T1, UGT8 (Homo sapiens, UniProt Q16880).
T1 construct: host or cells: OE19 cells
T1 sequence (Q16880 21-541): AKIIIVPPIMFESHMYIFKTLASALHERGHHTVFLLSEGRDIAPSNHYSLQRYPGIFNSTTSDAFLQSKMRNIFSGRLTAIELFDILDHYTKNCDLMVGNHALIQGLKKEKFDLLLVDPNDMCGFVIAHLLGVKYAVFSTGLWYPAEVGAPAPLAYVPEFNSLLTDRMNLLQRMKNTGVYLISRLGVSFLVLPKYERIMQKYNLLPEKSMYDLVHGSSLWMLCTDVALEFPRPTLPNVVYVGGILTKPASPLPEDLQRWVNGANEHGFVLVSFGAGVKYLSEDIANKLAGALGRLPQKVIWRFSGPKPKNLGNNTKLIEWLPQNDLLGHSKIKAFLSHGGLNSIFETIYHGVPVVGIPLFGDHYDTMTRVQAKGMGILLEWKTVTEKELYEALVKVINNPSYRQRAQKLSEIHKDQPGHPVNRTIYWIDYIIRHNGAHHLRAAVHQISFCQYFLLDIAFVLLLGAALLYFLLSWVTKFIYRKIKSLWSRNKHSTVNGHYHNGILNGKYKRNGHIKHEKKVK
Nature of the experiment: In vitro sulfatide (SFT) synthesis inhibition in OE19 cells, LC-MS/MS readout. It counts as cell-based. The note with it: 72 hr, sulfatide by LC-MS/MS, read-out: Potency range (IC50, In-vitro SFT). Summed up:
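OE19 cells, 2,500/well, exposed to compound dose-downs in triplicate for 72 hr at 37° C (screening at 10 μM final). Sulfatide quantified by LC-MS/MS (C8 UPLC, isocratic, negative-ion MRM) with C17 SFT internal standard; IC50 from concentration-response curves.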
Turning to `CNC(=O)c1csc2c(C(F)(F)F)c(C)c(OC3CCN(C(=O)OCCOC(F)(F)F)CC3)nc12` [Example 390, 2-(Trifluoromethoxy)ethyl 4-((6-methyl-3-(methylcarbamoyl)-7-(trifluoromethyl)thieno[3,2-b]pyridin-5-yl)oxy)piperidine-1-carboxylate], the IC50 (as a rule, the concentration needed to halve the response being measured) was under 100 nM.
Under `CNC(=O)c1c(C)sc2c(C(F)(F)F)cc(N3CCN(CC(=O)NC(C)C)CC3)nc12` [Example 408, 5-(4-(2-(Isopropylamino)-2-oxoethyl)piperazin-1-yl)-N,2-dimethyl-7-(trifluoromethyl)thieno[3,2-b]pyridine-3-carboxamide] stands 100 to 1000 nM; under `CNC(=O)c1c(C)sc2c(C(F)(F)F)cc(N3CCC(OC(=O)NCC4CC4)CC3)nc12` [Example 415, 1-(2-Methyl-3-(methylcarbamoyl)-7-(trifluoromethyl)thieno[3,2-b]pyridin-5-yl)piperidin-4-yl (cyclopropylmethyl)carbamate], under 100 nM.
As for `CC(C)NC(=O)c1csc2c(C(F)(F)F)cc(N3CCC(NC4CCC(C(F)(F)F)CC4)C3)nc12` (stereo not shown) [Example 419, N-Isopropyl-7-(trifluoromethyl)-5-(3-((4-(trifluoromethyl)cyclohexyl)amino)pyrrolidin-1-yl)thieno[3,2-b]pyridine-3-carboxamide], the figure is over 1000 nM.
As for `CCNC(=O)c1csc2c(C3CC3)cc(N3CCN(CC(=O)NC(C)C)CC3)nc12` [Example 420, 7-Cyclopropyl-N-ethyl-5-(4-(2-(isopropylamino)-2-oxoethyl)piperazin-1-yl)thieno[3,2-b]pyridine-3-carboxamide], the figure is over 1000 nM.
On to `CC(C)(C)NC(=O)OC1CCN(c2cc(C(F)(F)F)c3scc(C(=O)N4CCC4)c3n2)CC1` [Example 422, 1-(3-(Azetidine-1-carbonyl)-7-(trifluoromethyl)thieno[3,2-b]pyridin-5-yl)piperidin-4-yl tert-butylcarbamate], for which the IC50 was 100 to 1000 nM.
Under `COC(=O)c1csc2c(C(F)(F)F)cc(N3CCC(OC(=O)NCC4CC4)CC3)nc12` [Example 428, Methyl 5-(4-(((cyclopropylmethyl)carbamoyl)oxy)piperidin-1-yl)-7-(trifluoromethyl)thieno[3,2-b]pyridine-3-carboxylate] stands under 100 nM.
`CNC(=O)c1csc2c(Cl)cc(N3CCC(OC(=O)NCC4CC4)CC3)nc12` [Example 449, 1-(7-Chloro-3-(methylcarbamoyl)thieno[3,2-b]pyridin-5-yl)piperidin-4-yl (cyclopropylmethyl)carbamate]: the IC50 is under 100 nM.
As for `CNC(=O)c1csc2c(C(F)F)cc(N3CCC(OC(=O)NC(C)C)CC3)nc12` [Example 452, 1-(7-(Difluoromethyl)-3-(methylcarbamoyl)thieno[3,2-b]pyridin-5-yl)piperidin-4-yl isopropylcarbamate], the figure is under 100 nM.
Under `CNC(=O)c1csc2c(C(F)(F)F)cc(N3CCC(OC(=O)NCC4CC4)CC3)nc12` [Example 474, 1-(3-(Methylcarbamoyl)-7-(trifluoromethyl)thieno[3,2-b]pyridin-5-yl)piperidin-4-yl (cyclopropylmethyl)carbamate] stands under 100 nM.
On to `CNC(=O)c1csc2c(C(F)(F)F)cc(N3CC[C@@H](OC(=O)NC(C)C)[C@H](F)C3)nc12` [Example 495, (3R,4R)-3-Fluoro-1-(3-(methylcarbamoyl)-7-(trifluoromethyl)thieno[3,2-b]pyridin-5-yl)piperidin-4-yl isopropylcarbamate], for which the IC50 is under 100 nM.
Under `CNC(=O)c1csc2c(C(F)(F)F)cc(N3CCC(NC(=O)OCCC#N)CC3)nc12` [Example 505, 2-Cyanoethyl (1-(3-(methylcarbamoyl)-7-(trifluoromethyl)thieno[3,2-b]pyridin-5-yl)piperidin-4-yl)carbamate] stands under 100 nM; under `CNC(=O)c1csc2c(C(F)(F)F)cc(N3CCC(NC(=O)OCCOC(F)(F)F)CC3)nc12` [Example 520, 2-(Trifluoromethoxy)ethyl (1-(3-(methylcarbamoyl)-7-(trifluoromethyl)thieno[3,2-b]pyridin-5-yl)piperidin-4-yl)carbamate], under 100 nM; under `CNC(=O)c1csc2c(C(F)(F)F)cc(N3CCN(Cc4nc(C(C)C)cs4)CC3)nc12` [Example 528, 5-(4-((4-Isopropylthiazol-2-yl)methyl)piperazin-1-yl)-N-methyl-7-(trifluoromethyl)thieno[3,2-b]pyridine-3-carboxamide], under 100 nM.
As for `CNC(=O)c1csc2c(C(F)(F)F)cc(N3CCN(CC4CN(C(C)C)CCO4)CC3)nc12` (stereo not shown) [Example 552, 5-(4-((4-Isopropylmorpholin-2-yl)methyl)piperazin-1-yl)-N-methyl-7-(trifluoromethyl)thieno[3,2-b]pyridine-3-carboxamide trifluoroacetate], the figure is over 1000 nM; as for `CNC(=O)c1csc2c(C(F)(F)F)cc(C3CCN(C(=O)O[C@@H](C)C4CC4)CC3)nc12` [Example 566, (S)-1-Cyclopropylethyl 4-(3-(methylcarbamoyl)-7-(trifluoromethyl)thieno[3,2-b]pyridin-5-yl)piperidine-1-carboxylate], under 100 nM.
Under `CNC(=O)c1csc2c(C(F)(F)F)cc(C3CC4(C3)CN(C(=O)OC(C)(C)C)C4)nc12` [Example 574, tert-Butyl 6-(3-(methylcarbamoyl)-7-(trifluoromethyl)thieno[3,2-b]pyridin-5-yl)-2-azaspiro[3.3]heptane-2-carboxylate] stands under 100 nM; under `CNC(=O)c1csc2c(C(F)(F)F)cc(C3CC4(C3)CN(C(=O)OCCOC(F)(F)F)C4)nc12` [Example 576, 2-(Trifluoromethoxy)ethyl 6-(3-(methylcarbamoyl)-7-(trifluoromethyl)thieno[3,2-b]pyridin-5-yl)-2-azaspiro[3.3]heptane-2-carboxylate], under 100 nM.
Turning to `CNC(=O)c1csc2c(C(F)(F)F)cc(OCC3CN(C(=O)OC(C)(C)C)C3)nc12` [Example 585, tert-Butyl 3-(((3-(methylcarbamoyl)-7-(trifluoromethyl)thieno[3,2-b]pyridin-5-yl)oxy)methyl)azetidine-1-carboxylate], the IC50 fell in the range of 100 to 1000 nM.
Under `CNC(=O)c1csc2c(C(F)(F)F)cc(OC3CCN(C(=O)OC(C)(C)C)C3)nc12` (stereo not shown) [Example 589, tert-Butyl 3-((3-(methylcarbamoyl)-7-(trifluoromethyl)thieno[3,2-b]pyridin-5-yl)oxy)pyrrolidine-1-carboxylate] stands 100 to 1000 nM.
For the molecule `CNC(=O)c1csc2c(C(F)(F)F)cc(OC3CCN(C(=O)NCC4CC4)C3)nc12` (stereo not shown) [Example 590, 5-((1-((Cyclopropylmethyl)carbamoyl)pyrrolidin-3-yl)oxy)-N-methyl-7-(trifluoromethyl)thieno[3,2-b]pyridine-3-carboxamide], the IC50 fell in the range of 100 to 1000 nM.
`CNC(=O)c1csc2c(C(F)(F)F)cc(O[C@H]3CCN(C(=O)OC(C)(C)C)C3)nc12` [Example 593, tert-Butyl (S)-3-((3-(methylcarbamoyl)-7-(trifluoromethyl)thieno[3,2-b]pyridin-5-yl)oxy)pyrrolidine-1-carboxylate]: the IC50 lay within 100 to 1000 nM.
Under `CNC(=O)c1csc2c(C(F)(F)F)cc(O[C@H]3CCN(C(=O)NCC4CC4)C3)nc12` [Example 594, (S)-5-((1-((Cyclopropylmethyl)carbamoyl)pyrrolidin-3-yl)oxy)-N-methyl-7-(trifluoromethyl)thieno[3,2-b]pyridine-3-carboxamide] stands 100 to 1000 nM; under `CNC(=O)c1csc2c(C(F)(F)F)cc(O[C@H]3CCN(C(=O)OCC4CC4)C3)nc12` [Example 595, Cyclopropylmethyl (S)-3-((3-(methylcarbamoyl)-7-(trifluoromethyl)thieno[3,2-b]pyridin-5-yl)oxy)pyrrolidine-1-carboxylate], under 100 nM.
For the molecule `CNC(=O)c1csc2c(C(F)(F)F)cc(O[C@H]3CCN(C(=O)OCCOC(F)(F)F)C3)nc12` [Example 600, 2-(Trifluoromethoxy)ethyl (S)-3-((3-(methylcarbamoyl)-7-(trifluoromethyl)thieno[3,2-b]pyridin-5-yl)oxy)pyrrolidine-1-carboxylate], the IC50 was under 100 nM.
Under `CNC(=O)c1csc2c(C(F)(F)F)cc(CC3CCN(C(=O)OCCOC(F)(F)F)CC3)nc12` [Example 632, 2-(Trifluoromethoxy)ethyl 4-((3-(methylcarbamoyl)-7-(trifluoromethyl)thieno[3,2-b]pyridin-5-yl)methyl)piperidine-1-carboxylate] stands under 100 nM.
With `CNC(=O)c1csc2c(C(F)(F)F)cc(CC3CCN(C(=O)OC(C)(C)C)CC3)nc12` [Example 634, tert-Butyl 4-((3-(methylcarbamoyl)-7-(trifluoromethyl)thieno[3,2-b]pyridin-5-yl)methyl)piperidine-1-carboxylate], the IC50 lay within 100 to 1000 nM.
Under `CNC(=O)c1csc2c(C(F)(F)F)c(Cl)c(N3CCN(CC(=O)NC(C)C)CC3)nc12` [Example 636, 6-Chloro-5-[4-[2-(isopropylamino)-2-oxo-ethyl]piperazin-1-yl]-N-methyl-7-(trifluoromethyl)thieno[3,2-b]pyridine-3-carboxamide] stands 100 to 1000 nM.

For the origin of these results see patent publication US11098056B2, “UDP glycosyltransferase inhibitors and methods of use” (GENZYME CORPORATION, priority 2018, dated 2021).
